From patent US7041698B2, “Hepatitis C virus inhibitors” (Bristol-Myers Squibb Company, priority 2002, dated 2006)
Read-outs that look alike come from different tables or passages of the source.

Assays:
[1] = target: T1, HCV NS3/4A protease complex (UniProt P27958, C1454S/C1711G, species not given); assay: Recombinant HCV NS3/4A protease complex FRET peptide assay (strain not stated); format: biochemical
T1 construct: fused on or other part: Three-lysine solubilising tail at the C-terminus of NS4A

[2] = tested on: HCV replicon in Huh7 cells; assay: HCV replicon cell-based assay; set-up: species or system HCV strain 1B; conditions: HCV replicon, 4 days, read-out: EC50 range
Summary of the method: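 Huh7 cells carrying a genotype 1b subgenomic replicon (NS3-NS5B, neo) treated 4 days at 37° C with compound (0.5% DMSO final). NS3 protease activity read in lysates with 10 μM FRET peptide (340/490 nm, kinetic), giving EC50. Confirmed by Taqman qRT-PCR of HCV RNA and a Renilla luciferase replicon.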

[3] = HCV NS3/4A protease enzyme assay, read-out: IC50 range
[4] = read-out: IC50 range, HCV NS3/4A protease enzyme assay

Work on `C=CC1C[C@]1(NC(=O)[C@@H]1C[C@@H](OC(=O)Nc2cc(C(C)=O)ccc2N2CCCCC2)CN1C(=O)[C@@H](NC(=O)OC(C)(C)C)C(C)(C)C)C(=O)NS(=O)(=O)C1CC1` (stereo partly drawn) [Compound 80, BocNH-P3(t-BuGly)-P2(Hyp(O—CO(NH-1-(2-piperidino-5-acetylphenyl))))-P1(1R,2S VinylAcca)—CONHSO2Cyclopropane] yielded an IC50 [1, 3] of under 100 nM and an EC50 ([2]; Hepatitis C virus, Huh-7, 96 h) of under 100 nM.
`C=CC1C[C@]1(NC(=O)[C@@H]1C[C@@H](OC(=O)Nc2cc(C#N)ccc2-n2cccn2)CN1C(=O)[C@@H](NC(=O)OC(C)(C)C)C(C)(C)C)C(=O)NS(=O)(=O)C1CC1` (stereo partly drawn) [Compound 98, BocNH-P3(t-BuGly)-P2(Hyp(O—CO(NH—(5-Cyano-2-pyrazol-1-yl-phenyl))))-P1(1R,2S VinylAcca)—CONHSO2Cyclopropane] gave an IC50 [1, 3] of under 100 nM and an EC50 ([2]; Hepatitis C virus, Huh-7, 96 h) of under 100 nM.
In the case of `C=CC1C[C@]1(NC(=O)[C@@H]1C[C@@H](OC(=O)Nc2ccccc2[N+](=O)[O-])CN1C(=O)[C@@H](NC(=O)OC(C)(C)C)C(C)(C)C)C(=O)NS(=O)(=O)C1CC1` (stereo partly drawn) [Compound 60, BocNH-P3(t-BuGly)-P2(Hyp(O—CO(NH—(2-nitro-phenyl))))-P1(1R,2S VinylAcca)—CONHSO2Cyclopropane], the IC50 [1, 3] is reported as under 100 nM and the EC50 ([2]; Hepatitis C virus, Huh-7, 96 h) is reported as 100 to 1000 nM.
Work on `C=C[C@@H]1C[C@]1(NC(=O)[C@@H]1C[C@@H](OC(=O)Nc2ccccc2C(=O)OCC)CN1C(=O)[C@@H](NC(=O)OCC)C(C)(C)C)C(=O)NS(=O)(=O)C1CC1` [Compound 111] yielded an IC50 [1, 3] of under 100 nM and an EC50 ([2]; Hepatitis C virus, Huh-7, 96 h) of 100 to 1000 nM.
`C=CC1C[C@]1(NC(=O)[C@@H]1C[C@@H](OC(=O)Nc2cccc(C(=O)OCC)c2)CN1C(=O)[C@@H](NC(=O)OC(C)(C)C)C(C)(C)C)C(=O)NS(=O)(=O)C1CC1` (stereo partly drawn) [Compound 28, BocNH-P3(t-BuGly)-P2(Hyp(O—CO(NH—(3-benzoic acid ethyl ester))))-P1(1R,2S VinylAcca)—CONHSO2Cyclopropane] showed an IC50 [1, 3] of 100 to 1000 nM and an EC50 ([2]; Hepatitis C virus, Huh-7, 96 h) of 1000 to 10000 nM.
With `C=CC1C[C@]1(NC(=O)[C@@H]1C[C@@H](OC(=O)N(c2ccccc2)c2ccccc2)CN1C(=O)[C@@H](NC(=O)OC(C)(C)C)C(C)(C)C)C(=O)NS(=O)(=O)C1CC1` (stereo partly drawn) [Compound 39, BocNH-P3(t-BuGly)-P2(Hyp(O—CO(N,N-diphenyl)))-P1(1R,2S VinylAcca)—CONHSO2Cyclopropane] the IC50 [1, 4] was under 100 nM and the EC50 ([2]; Hepatitis C virus, Huh-7, 96 h) was 100 to 1000 nM.
`C=CC1C[C@]1(NC(=O)[C@@H]1C[C@@H](OC(=O)Nc2cc(C)ccc2-n2cccn2)CN1C(=O)[C@@H](NC(=O)OC(C)(C)C)C(C)(C)C)C(=O)NS(=O)(=O)C1CC1` (stereo partly drawn) [Compound 96, BocNH-P3(t-BuGly)-P2(Hyp(O—CO(NH—(5-Methyl-2-pyrazol-1-yl-phenyl))))-P1(1R,2S VinylAcca)—CONHSO2Cyclopropane] gave an IC50 [1, 3] of under 100 nM and an EC50 ([2]; Hepatitis C virus, Huh-7, 96 h) of under 100 nM.
Work on `C=CC1C[C@]1(NC(=O)[C@@H]1C[C@@H](OC(=O)N2CCOCC2)CN1C(=O)[C@@H](NC(=O)OC(C)(C)C)C(C)(C)C)C(=O)NS(=O)(=O)C1CC1` (stereo partly drawn) [Compound 4, BocNH-P3(t-BuGly)-P2(Hyp(O—CO—(4-morpholino)))-P1(1R,2S VinylAcca)—CONHSO2Cyclopropane] yielded an IC50 [1, 3] of 100 to 1000 nM and an EC50 ([2]; Hepatitis C virus, Huh-7, 96 h) of over 10000 nM.
`C=CC1C[C@]1(NC(=O)[C@@H]1C[C@@H](OC(=O)Nc2ccc(Cl)cc2-c2cc(C)n[nH]2)CN1C(=O)[C@@H](NC(=O)OC(C)(C)C)C(C)(C)C)C(=O)NS(=O)(=O)C1CC1` (stereo partly drawn) [Compound 78, BocNH-P3(t-BuGly)-P2(Hyp(O—CO(NH-1-(4-Chloro-2-(5-methyl-2H-pyrazol-3-yl)phenyl))))-P1(1R,2S VinylAcca)—CONHSO2Cyclopropane] showed an IC50 [1, 3] of 100 to 1000 nM and an EC50 ([2]; Hepatitis C virus, Huh-7, 96 h) of over 10000 nM.
Work on `C=CC1C[C@]1(NC(=O)[C@@H]1C[C@@H](OC(=O)Nc2cc(C(C)=O)ccc2N2CCC(C(=O)OCC)CC2)CN1C(=O)[C@@H](NC(=O)OC(C)(C)C)C(C)(C)C)C(=O)NS(=O)(=O)C1CC1` (stereo partly drawn) [Compound 76, BocNH-P3(t-BuGly)-P2(Hyp(O—CO(NH-2-(1-(4-acetyl-phenyl))-piperidine-4-carboxylic acid ethyl ester)))-P1(1R,2S VinylAcca)—CONHSO2Cyclopropane] yielded an IC50 [1, 3] of under 100 nM and an EC50 ([2]; Hepatitis C virus, Huh-7, 96 h) of 100 to 1000 nM.
`C=CC1C[C@]1(NC(=O)[C@@H]1C[C@@H](OC(=O)Nc2cc(Cl)cc(Cl)c2)CN1C(=O)[C@@H](NC(=O)OC(C)(C)C)C(C)(C)C)C(=O)NS(=O)(=O)C1CC1` (stereo partly drawn) [Compound 23, BocNH-P3(t-BuGly)-P2(Hyp(O—CO(NH—(3,5-dichloro-phenyl))))-P1(1R,2S VinylAcca)—CONHSO2Cyclopropane] was tested, and the IC50 [1, 4] was under 100 nM and the EC50 ([2]; Hepatitis C virus, Huh-7, 96 h) was 100 to 1000 nM.
With `C=CC1C[C@]1(NC(=O)[C@@H]1C[C@@H](OC(=O)Nc2cc(C)ccc2Cl)CN1C(=O)[C@@H](NC(=O)OC(C)(C)C)C(C)(C)C)C(=O)NS(=O)(=O)C1CC1` (stereo partly drawn) [Compound 38, BocNH-P3(t-BuGly)-P2(Hyp(O—CO(NH—(2-chloro-5-methyl-phenyl))))-P1(1R,2S VinylAcca)—CONHSO2Cyclopropane] the IC50 [1, 3] was under 100 nM and the EC50 ([2]; Hepatitis C virus, Huh-7, 96 h) was 100 to 1000 nM.
In the case of `C=CC1C[C@]1(NC(=O)[C@@H]1C[C@@H](OC(=O)Nc2cc(C(F)(F)F)ccc2N2CCC(C(F)(F)F)CC2)CN1C(=O)[C@@H](NC(=O)OC(C)(C)C)C(C)(C)C)C(=O)NS(=O)(=O)C1CC1` (stereo partly drawn) [Compound 92, BocNH-P3(t-BuGly)-P2(Hyp(O—CO(NH—(5-Trifluoromethyl-2-(4-trifluoromethyl-piperidin-1-yl)-phenyl))))-P1(1R,2S VinylAcca)—CONHSO2Cyclopropane], the IC50 [1, 3] is reported as under 100 nM and the EC50 ([2]; Hepatitis C virus, Huh-7, 96 h) is reported as under 100 nM.
Compound `C=CC1C[C@]1(NC(=O)[C@@H]1C[C@@H](OC(=O)NCc2ccc(OC)cc2)CN1C(=O)[C@@H](NC(=O)OC(C)(C)C)C(C)(C)C)C(=O)NS(=O)(=O)C1CC1` (stereo partly drawn) [Compound 11, BocNH-P3(t-BuGly)-P2(Hyp(O—CO(NH—(4-methoxy-benzyl))))-P1(1R,2S VinylAcca)—CONHSO2Cyclopropane] has an IC50 [1, 3] of 100 to 1000 nM and an EC50 ([2]; Hepatitis C virus, Huh-7, 96 h) of 1000 to 10000 nM.
Work on `C=CC1C[C@]1(NC(=O)[C@@H]1C[C@@H](OC(=O)Nc2ccccc2CCC)CN1C(=O)[C@@H](NC(=O)OC(C)(C)C)C(C)(C)C)C(=O)NS(=O)(=O)C1CC1` (stereo partly drawn) [Compound 66, BocNH-P3(t-BuGly)-P2(Hyp(O—CO(NH—(2-propyl-phenyl))))-P1(1R,2S VinylAcca)—CONHSO2Cyclopropane] yielded an IC50 [1, 3] of under 100 nM and an EC50 ([2]; Hepatitis C virus, Huh-7, 96 h) of 1000 to 10000 nM.
`C=CC1C[C@]1(NC(=O)[C@@H]1C[C@@H](OC(=O)Nc2ccccc2/C(=N/O)c2ccccc2)CN1C(=O)[C@@H](NC(=O)OC(C)(C)C)C(C)(C)C)C(=O)NS(=O)(=O)C1CC1` (single isomer, unassigned) [Compound 77a] was tested, and the IC50 [1, 3] was 100 to 1000 nM and the EC50 [2] was 1000 to 10000 nM.
Work on `C=CC1C[C@]1(NC(=O)[C@@H]1C[C@@H](OC(=O)Nc2c(F)cccc2F)CN1C(=O)[C@@H](NC(=O)OC(C)(C)C)C(C)(C)C)C(=O)NS(=O)(=O)C1CC1` (stereo partly drawn) [Compound 52, BocNH-P3(t-BuGly)-P2(Hyp(O—CO(NH—(2,6-difluorophenyl))))-P1(1R,2S VinylAcca)—CONHSO2Cyclopropane] yielded an IC50 [1, 3] of 100 to 1000 nM and an EC50 ([2]; Hepatitis C virus, Huh-7, 96 h) of over 10000 nM.
Work on `C=CC1C[C@]1(NC(=O)[C@@H]1C[C@@H](OC(=O)Nc2c(Cl)cccc2Cl)CN1C(=O)[C@@H](NC(=O)OC(C)(C)C)C(C)(C)C)C(=O)NS(=O)(=O)C1CC1` (stereo partly drawn) [Compound 54, BocNH-P3(t-BuGly)-P2(Hyp(O—CO(NH—(2,6-dichloro-phenyl))))-P1(1R,2S VinylAcca)—CONHSO2Cyclopropane] yielded an IC50 [1, 3] of 100 to 1000 nM and an EC50 ([2]; Hepatitis C virus, Huh-7, 96 h) of 1000 to 10000 nM.
For `C=CC1C[C@]1(NC(=O)[C@@H]1C[C@@H](OC(=O)Nc2cccc(C(C)=O)c2)CN1C(=O)[C@@H](NC(=O)OC(C)(C)C)C(C)(C)C)C(=O)NS(=O)(=O)C1CC1` (stereo partly drawn) [Compound 47, BocNH-P3(t-BuGly)-P2(Hyp(O—CO(NH—(3-acetyl-phenyl))))-P1(1R,2S VinylAcca)—CONHSO2Cyclopropane], the IC50 [1, 3] was 100 to 1000 nM and the EC50 ([2]; Hepatitis C virus, Huh-7, 96 h) was over 10000 nM.
With `C=C[C@@H]1C[C@]1(NC(=O)[C@@H]1C[C@@H](OC(=O)Nc2cc(C(F)(F)F)ccc2-n2cccn2)CN1C(=O)[C@@H](NC(=O)OC(C)(C)C)C(C)(C)C)C(=O)NS(=O)(=O)C1CC1` [Compound 100, BocNH-P3(t-BuGly)-P2(Hyp(O—CO(NH—(5-trifluoromethyl-2-pyrazol-1-yl-phenyl))))-P1(1R,2S VinylAcca)—CONHSO2Cyclopropane] the IC50 [1, 3] was under 100 nM and the EC50 ([2]; Hepatitis C virus, Huh-7, 96 h) was under 100 nM.
`C=CC1C[C@]1(NC(=O)[C@@H]1C[C@@H](OC(=O)Nc2cc(C)ccc2F)CN1C(=O)[C@@H](NC(=O)OC(C)(C)C)C(C)(C)C)C(=O)NS(=O)(=O)C1CC1` (stereo partly drawn) [Compound 21, BocNH-P3(t-BuGly)-P2(Hyp(O—CO(NH—(2-fluoro-5-methyl-phenyl))))-P1(1R,2S VinylAcca)—CONHSO2Cyclopropane] gave an IC50 [1, 3] of under 100 nM and an EC50 ([2]; Hepatitis C virus, Huh-7, 96 h) of 100 to 1000 nM.
Compound `C=CC1C[C@]1(NC(=O)[C@@H]1C[C@@H](OC(=O)N[C@H](C(=O)OC)[C@@H](C)CC)CN1C(=O)[C@@H](NC(=O)OC(C)(C)C)C(C)(C)C)C(=O)NS(=O)(=O)C1CC1` (stereo partly drawn) [Compound 12, BocNH-P3(t-BuGly)-P2(Hyp(O—CO(NH-2-[(2S,3S)-3-methylvaleric acid methyl ester])))-P1(1R,2S VinylAcca)—CONHSO2Cyclopropane] has an IC50 [1, 3] of 1000 to 10000 nM and an EC50 ([2]; Hepatitis C virus, Huh-7, 96 h) of over 10000 nM.
`C=CC1C[C@]1(NC(=O)[C@@H]1C[C@@H](OC(=O)Nc2cc(C)nn2-c2ccccc2)CN1C(=O)[C@@H](NC(=O)OC(C)(C)C)C(C)(C)C)C(=O)NS(=O)(=O)C1CC1` (stereo partly drawn) [Compound 73, BocNH-P3(t-BuGly)-P2(Hyp(O—CO(NH—(5-Methyl-2-phenyl-4H-pyrazol-3-yl))))-P1(1R,2S VinylAcca)—CONHSO2 Cyclopropane] was tested, and the IC50 [1, 3] was under 100 nM and the EC50 ([2]; Hepatitis C virus, Huh-7, 96 h) was over 10000 nM.
Work on `C=CC1C[C@]1(NC(=O)[C@@H]1C[C@@H](OC(=O)NCc2ccccc2C)CN1C(=O)[C@@H](NC(=O)OC(C)(C)C)C(C)(C)C)C(=O)NS(=O)(=O)C1CC1` (stereo partly drawn) [Compound 2, BocNH-P3(t-BuGly)-P2(Hyp(O—CO(NH—(2-methylbenzyl))))-P1(1R,2S VinylAcca)—CONHSO2Cyclopropane] yielded an IC50 [1, 3] of 100 to 1000 nM and an EC50 ([2]; Hepatitis C virus, Huh-7, 96 h) of 1000 to 10000 nM.
